# Assay results as given in PubChem BioAssay AID2060507 (Molecular Pharmacology Branch, DTP, NCI, 2025).
# System: 519858-162-T-J1-PDC complex spheroid viability
# Test: Anticancer human tumor 519858-162-T-J1-PDC patient-derived colon adenocarcinoma cell line growth inhibition [GQUAD]
# Conditions: for IC50: curve of first compound; for viability, T/C: stronger effect = lower value
# Summary of the method: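 Viability of tumor cells grown as complex spheroids with endothelial and stromal cells, exposed to drug combinations. Top concentration at or near clinical Cmax (else 10 microM), diluted in half-log increments.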
# [1] = second compound 0.0316 µM, first compound 0.0316 µM
# [2] = second compound 0.0316 µM, first compound 0.1 µM
# [3] = second compound 0.0316 µM, first compound 0.316 µM
# [4] = second compound 0.0316 µM, first compound 1 µM
# [5] = second compound 0.0316 µM, first compound 3.16 µM
# [6] = second compound 0.0316 µM, first compound 10 µM
# [7] = second compound 0.1 µM, first compound 0.0316 µM
# [8] = second compound 0.1 µM, first compound 0.1 µM
# [9] = second compound 0.1 µM, first compound 0.316 µM
# [10] = second compound 0.1 µM, first compound 1 µM
# [11] = second compound 0.1 µM, first compound 3.16 µM
# [12] = second compound 0.1 µM, first compound 10 µM
# [13] = second compound 0.316 µM, first compound 0.0316 µM
# [14] = second compound 0.316 µM, first compound 0.1 µM
# [15] = second compound 0.316 µM, first compound 0.316 µM
# [16] = second compound 0.316 µM, first compound 1 µM
# [17] = second compound 0.316 µM, first compound 3.16 µM
# [18] = second compound 0.316 µM, first compound 10 µM
# [19] = second compound 1 µM, first compound 0.0316 µM
# [20] = second compound 1 µM, first compound 0.1 µM
# [21] = second compound 1 µM, first compound 0.316 µM
# [22] = second compound 1 µM, first compound 1 µM
# [23] = second compound 1 µM, first compound 3.16 µM
# [24] = second compound 1 µM, first compound 10 µM
# [25] = second compound 3.16 µM, first compound 0.0316 µM
# [26] = second compound 3.16 µM, first compound 0.1 µM
# [27] = second compound 3.16 µM, first compound 0.316 µM
# [28] = second compound 3.16 µM, first compound 1 µM
# [29] = second compound 3.16 µM, first compound 3.16 µM
# [30] = second compound 3.16 µM, first compound 10 µM
# [31] = second compound 10 µM, first compound 0.0316 µM
# [32] = second compound 10 µM, first compound 0.1 µM
# [33] = second compound 10 µM, first compound 0.316 µM
# [34] = second compound 10 µM, first compound 1 µM
# [35] = second compound 10 µM, first compound 3.16 µM
# [36] = second compound 10 µM, first compound 10 µM
# 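For viability, T/C in this document: 100% = DMSO vehicle control viability.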
structure (smiles),measurement,setting,value
C=CCn1c(=O)c2cnc(Nc3ccc(N4CCN(C)CC4)cc3)nc2n1-c1cccc(C(C)(C)O)n1 + Cc1cnc(CNC(=O)c2c(=O)c3ccc(N4CCCN(C)CC4)nc3n3c2sc2ccccc23)cn1,IC50,second compound 0.0316 µM,> 10 µM
same,IC50,second compound 0.1 µM,> 10 µM
same,IC50,second compound 0.316 µM,> 10 µM
same,IC50,second compound 1 µM,< 0.0316 µM
same,IC50,second compound 3.16 µM,< 0.0316 µM
same,IC50,second compound 10 µM,< 0.0316 µM
same,"viability, T/C",[1],95.6%
same,"viability, T/C",[2],82.6%
same,"viability, T/C",[3],94.3%
same,"viability, T/C",[4],66.1%
same,"viability, T/C",[5],70.4%
same,"viability, T/C",[6],76%
same,"viability, T/C",[7],81.8%
same,"viability, T/C",[8],96.9%
same,"viability, T/C",[9],58.5%
same,"viability, T/C",[10],92%
same,"viability, T/C",[11],66.8%
same,"viability, T/C",[12],69.7%
same,"viability, T/C",[13],51.6%
same,"viability, T/C",[14],73%
same,"viability, T/C",[15],49.8%
same,"viability, T/C",[16],64.2%
same,"viability, T/C",[17],75.8%
same,"viability, T/C",[18],64.3%
same,"viability, T/C",[19],60%
same,"viability, T/C",[20],48.2%
same,"viability, T/C",[21],38.8%
same,"viability, T/C",[22],42.4%
same,"viability, T/C",[23],73.6%
same,"viability, T/C",[24],68%
same,"viability, T/C",[25],46.3%
same,"viability, T/C",[26],51.4%
same,"viability, T/C",[27],53.8%
same,"viability, T/C",[28],45.5%
same,"viability, T/C",[29],49.5%
same,"viability, T/C",[30],53.4%
same,"viability, T/C",[31],40%
same,"viability, T/C",[32],55.3%
same,"viability, T/C",[33],51.6%
same,"viability, T/C",[34],40.1%
same,"viability, T/C",[35],32.3%
same,"viability, T/C",[36],39.4%
COc1ncnc(C2CC2)c1-c1ncc2cnn(Cc3ccc(-c4nc(C(F)(F)F)cn4C(C)C)cc3)c2n1 + Cc1cnc(CNC(=O)c2c(=O)c3ccc(N4CCCN(C)CC4)nc3n3c2sc2ccccc23)cn1,IC50,second compound 0.0316 µM,> 10 µM
same,IC50,second compound 0.1 µM,> 10 µM
same,IC50,second compound 0.316 µM,8.6 µM
same,IC50,second compound 1 µM,0.809 µM
same,IC50,second compound 3.16 µM,< 0.0316 µM
same,IC50,second compound 10 µM,< 0.0316 µM
same,"viability, T/C",[1],87.7%
same,"viability, T/C",[2],65.6%
same,"viability, T/C",[3],88.7%
same,"viability, T/C",[4],79.3%
same,"viability, T/C",[5],90.6%
same,"viability, T/C",[6],67.6%
same,"viability, T/C",[7],85.6%
same,"viability, T/C",[8],74.8%
same,"viability, T/C",[9],97.7%
same,"viability, T/C",[10],77.9%
same,"viability, T/C",[11],97.2%
same,"viability, T/C",[12],54%
same,"viability, T/C",[13],72.4%
same,"viability, T/C",[14],54.8%
same,"viability, T/C",[15],64.1%
same,"viability, T/C",[16],67.5%
same,"viability, T/C",[17],45.5%
same,"viability, T/C",[18],50.4%
same,"viability, T/C",[19],55.7%
same,"viability, T/C",[20],54.1%
same,"viability, T/C",[21],47.6%
same,"viability, T/C",[22],47.8%
same,"viability, T/C",[23],49.1%
same,"viability, T/C",[24],53.3%
same,"viability, T/C",[25],49.2%
same,"viability, T/C",[26],40.1%
same,"viability, T/C",[27],46%
same,"viability, T/C",[28],30.3%
same,"viability, T/C",[29],63.7%
same,"viability, T/C",[30],48.6%
same,"viability, T/C",[31],35.8%
same,"viability, T/C",[32],55.3%
same,"viability, T/C",[33],48.5%
same,"viability, T/C",[34],26.8%
same,"viability, T/C",[35],47.6%
same,"viability, T/C",[36],90.8%
O=C(NO)c1cnc(N2CCN(S(=O)(=O)c3ccc4ccccc4c3)CC2)nc1 + Cc1cnc(CNC(=O)c2c(=O)c3ccc(N4CCCN(C)CC4)nc3n3c2sc2ccccc23)cn1,IC50,second compound 0.0316 µM,0.244 µM
same,IC50,second compound 0.1 µM,0.339 µM
same,IC50,second compound 0.316 µM,0.345 µM
same,IC50,second compound 1 µM,0.173 µM
same,IC50,second compound 3.16 µM,0.107 µM
same,IC50,second compound 10 µM,< 0.0316 µM
same,"viability, T/C",[1],119%
same,"viability, T/C",[2],72.2%
same,"viability, T/C",[3],50.9%
same,"viability, T/C",[4],13.3%
same,"viability, T/C",[5],0.34%
same,"viability, T/C",[6],0.45%
same,"viability, T/C",[7],81.2%
same,"viability, T/C",[8],104%
same,"viability, T/C",[9],53%
same,"viability, T/C",[10],11.7%
same,"viability, T/C",[11],1.16%
same,"viability, T/C",[12],1.51%
same,"viability, T/C",[13],92%
same,"viability, T/C",[14],85.8%
same,"viability, T/C",[15],53.8%
same,"viability, T/C",[16],8.35%
same,"viability, T/C",[17],5.71%
same,"viability, T/C",[18],1.25%
same,"viability, T/C",[19],88.7%
same,"viability, T/C",[20],66.8%
same,"viability, T/C",[21],31.8%
same,"viability, T/C",[22],6.88%
same,"viability, T/C",[23],1.42%
same,"viability, T/C",[24],0.68%
same,"viability, T/C",[25],68.2%
same,"viability, T/C",[26],45.7%
same,"viability, T/C",[27],37.1%
same,"viability, T/C",[28],5.54%
same,"viability, T/C",[29],3.32%
same,"viability, T/C",[30],1.98%
same,"viability, T/C",[31],42.8%
same,"viability, T/C",[32],44.6%
same,"viability, T/C",[33],26.1%
same,"viability, T/C",[34],5.86%
same,"viability, T/C",[35],3.74%
same,"viability, T/C",[36],2.11%
